Patent publication US9745360B2 (Sanofi, priority 2012, dated 2017)
Converted amounts (≈) assume the structure as drawn. Where two headings read alike, the source gives them in different places. *1 amine or outer side, *2 acyl side, *3 side chain or, on linkers, in order; H or OH if unused. Where a SMILES comes first, the peptide text is derived from it. Side-chain parts run from the residue outwards. [ ]: non-standard residue; d: D form. The star is where a group is joined. γGlu = O=C(O)[C@H](CCC(=O)[*:2])N[*:1]; Stearoyl = CCCCCCCCCCCCCCCCCC(=O)*; Palmitoyl = CCCCCCCCCCCCCCCC(=O)*; d(αMeK) = C[C@@](N)(CCCCN)C(=O)O; αMeOrn = C[C@](N)(CCCN)C(=O)O; αMeK = C[C@](N)(CCCCN)C(=O)O; Api = NC1(C(=O)O)CCNCC1; Aib = CC(C)(N)C(=O)O

What was measured:
[1] = Chemical stability in solution, 7 days at 25° C., % remaining peptide; format: physicochemical; conditions: % remaining peptide after 7 days at 25° C.
Procedure: The chemical stability is expressed as “% remaining peptide”.
(§1) Solubility and chemical stability of peptidic compounds were assessed as described in Methods.

[2] = biological target: T1, human GIP receptor (hGIP R) (Homo sapiens, UniProt P48546); assay: cAMP response (HTRF) of HEK-293 cells stably expressing human GIP receptor; format: cell-based; conditions: Table 7; cAMP formation
T1 construct: expressed in transfected cells
T1 sequence (P48546 22-466): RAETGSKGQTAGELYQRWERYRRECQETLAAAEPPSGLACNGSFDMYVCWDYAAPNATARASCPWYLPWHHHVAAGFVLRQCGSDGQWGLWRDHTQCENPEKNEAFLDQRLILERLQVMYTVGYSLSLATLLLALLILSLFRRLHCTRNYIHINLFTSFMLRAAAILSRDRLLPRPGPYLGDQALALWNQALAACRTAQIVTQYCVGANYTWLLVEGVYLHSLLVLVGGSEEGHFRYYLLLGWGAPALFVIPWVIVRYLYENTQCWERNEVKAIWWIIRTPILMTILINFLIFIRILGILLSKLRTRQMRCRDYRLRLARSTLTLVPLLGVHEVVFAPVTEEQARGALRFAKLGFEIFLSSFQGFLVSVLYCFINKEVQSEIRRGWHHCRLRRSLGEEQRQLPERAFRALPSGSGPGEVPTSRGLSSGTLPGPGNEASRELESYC
Procedure: (§2) cAMP content of cells was determined using a kit from Cisbio Corp. (cat. no. 62AM4PEC) based on HTRF (Homogenous Time Resolved Fluorescence). For preparation, cells were split into T175 culture flasks and grown overnight to near confluency in medium (DMEM/10% FBS). Medium was then removed and cells washed with PBS lacking calcium and magnesium, followed by proteinase treatment with accutase (Sigma-Aldrich cat. no. A6964). Detached cells were washed and resuspended in assay buffer (1×HBSS; 20 mM HEPES, 0.1% BSA, 2 mM IBMX) and cellular density determined. They were then diluted to 400000 cells/ml and 25 μl-aliquots dispensed into the wells of 96-well plates. For measurement, 25 μl of test compound in assay buffer was added to the wells, followed by incubation for 30 minutes at room temperature.

[3] = Solubility testing in buffer, HPLC-UV of supernatant; format: physicochemical; conditions: target concentration 1.0 mg/mL; for solubility at 2 h: buffer
Procedure: as §1

[4] = biological target: T2, human GLP-1 receptor (hGLP-1 R) (Homo sapiens, UniProt P43220); assay: cAMP response (HTRF) of HEK-293 cells stably expressing human GLP-1 receptor; format: cell-based; conditions: Table 7; cAMP formation
T2 construct: expressed in transfected cells
T2 sequence (P43220 24-463): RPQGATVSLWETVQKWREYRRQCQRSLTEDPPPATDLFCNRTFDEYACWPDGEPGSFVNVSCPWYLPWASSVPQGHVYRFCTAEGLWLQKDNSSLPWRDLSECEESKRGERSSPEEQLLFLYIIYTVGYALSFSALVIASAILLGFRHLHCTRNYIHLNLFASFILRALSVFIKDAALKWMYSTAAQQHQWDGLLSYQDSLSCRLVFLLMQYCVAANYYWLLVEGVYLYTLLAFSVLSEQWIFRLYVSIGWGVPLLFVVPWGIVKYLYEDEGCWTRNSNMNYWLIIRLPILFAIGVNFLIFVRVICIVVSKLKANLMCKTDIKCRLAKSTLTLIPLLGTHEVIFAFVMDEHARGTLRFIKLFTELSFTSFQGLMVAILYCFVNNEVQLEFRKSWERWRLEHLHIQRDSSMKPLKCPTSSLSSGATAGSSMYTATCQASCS
Procedure: as §2

[5] = tested on: non-fasted female diabetic dbdb-mice; assay: Glucose lowering in non-fasted female diabetic dbdb-mice; format: in vivo; conditions: 3 μg/kg s.c., at 240 min, kept to 480 min, baseline 20-22 mmol/l
Text: Female diabetic dbdb-mice of mean non-fasted glucose value of 20-22 mmol/l and a body weight of 42 g+/−0.6 g (SEM) were used. Mice were individually marked and were adapted to housing conditions for at least one week.
3-5 days prior to study start mice were assigned to groups and cages (4 mice per cage, 8 per group, control group 16) according to their non-fasted glucose values to ensure even distribution of lower and higher values between groups (stratification). On the study day, mice were weighed and dosed (t=0). Immediately prior to compound administration feed was removed while water remained available, and a first blood sample at a tail incision was drawn (baseline). Further blood samples were drawn at the tail incision at 30, 60, 90, 120, 240, 360, and 480 min.
Statistical analyses are performed with Everstat Version 6.0 based on SAS by 2-way-ANOVA on repeated measures, followed by Dunnett's post-hoc test against vehicle-control. Differences are considered statistically significant at the p<0.05 level.

[6] = pH 4.5, read-out: Solubility (pH 4.5)
[7] = pH 7.4, read-out: Solubility (pH 7.4)

Compound	Stability (pH 4.5) [1] [%]	Stability (pH 7.4) [1] [%]	EC50 [2] [pM]	EC50 [4] [pM]	also measured
CCCCCCCCCCCCCCCC(=O)N[C@@H](CCC(=O)NCCCC[C@H](NC(=O)[C@H](CCC(N)=O)NC(=O)[C@@H](NC(=O)[C@H](CO)NC(=O)[C@H](CC(C)C)NC(=O)[C@H](CC(=O)O)NC(=O)[C@H](CO)NC(=O)[C@@H](NC(=O)[C@H](Cc1ccccc1)NC(=O)[C@@H](NC(=O)CNC(=O)[C@H](CCC(=O)O)NC(=O)C(C)(C)NC(=O)[C@@H](N)Cc1ccc(O)cc1)[C@@H](C)O)[C@@H](C)O)[C@@H](C)CC)C(=O)N[C@@H](CCC(=O)O)C(=O)N[C@@H](CCC(=O)O)C(=O)N[C@@H](CCCNC(=N)N)C(=O)N[C@@H](C)C(=O)N[C@@H](C)C(=O)NC1(C(=O)N[C@@H](CCC(=O)O)C(=O)N[C@@H](Cc2ccccc2)C(=O)N[C@H](C(=O)N[C@@H](CCC(=O)O)C(=O)N[C@@H](Cc2c[nH]c3ccccc23)C(=O)N[C@@H](CC(C)C)C(=O)N[C@@H](CCCCN)C(=O)N[C@@H](CC(N)=O)C(=O)N[C@H](C(=O)NCC(=O)N2CCC[C@H]2C(=O)N[C@@H](CO)C(=O)N[C@@H](CO)C(=O)NCC(=O)N[C@@H](C)C(=O)N2CCC[C@H]2C(=O)N2CCC[C@H]2C(=O)N2CCC[C@H]2C(=O)N[C@@H](CO)C(N)=O)[C@@H](C)O)[C@@H](C)CC)CCNCC1)C(=O)O [SEQ ID NO: 8, Y-Aib-E-G-T-F-T-S-D-L-S-I-Q-K(γE-x53)-E-E-R-A-A-Pip-E-F-I-E-W-L-K-N-T-G-P-S-S-G-A-P-P-P-S-NH2] (H-Y[Aib]EGTFTSDLSIQK([γGlu-Palmitoyl])EERAA[Api]EFIEWLKNTGPSSGAPPPS-NH2)	93.0	93.0	16.3		solubility [3, 6]: > 1000 µg/mL; solubility [3, 7]: > 1000 µg/mL
CCCCCCCCCCCCCCCC(=O)N[C@@H](CCC(=O)NCCCC[C@H](NC(=O)[C@H](CCC(N)=O)NC(=O)[C@@H](NC(=O)[C@H](CO)NC(=O)[C@H](CC(C)C)NC(=O)[C@H](CC(=O)O)NC(=O)[C@H](CO)NC(=O)[C@@H](NC(=O)[C@H](Cc1ccccc1)NC(=O)[C@@H](NC(=O)CNC(=O)[C@H](CCC(=O)O)NC(=O)C(C)(C)NC(=O)[C@@H](N)Cc1ccc(O)cc1)[C@@H](C)O)[C@@H](C)O)[C@@H](C)CC)C(=O)N[C@@H](CCC(=O)O)C(=O)N[C@@H](CCC(=O)O)C(=O)N[C@@H](CCCNC(=N)N)C(=O)N[C@@H](C)C(=O)N[C@@H](C)C(=O)N[C@@](C)(CCCN)C(=O)N[C@@H](CCC(=O)O)C(=O)N[C@@H](Cc1ccccc1)C(=O)N[C@H](C(=O)N[C@@H](CCC(=O)O)C(=O)N[C@@H](Cc1c[nH]c2ccccc12)C(=O)N[C@@H](CC(C)C)C(=O)N[C@@H](CCCCN)C(=O)N[C@@H](CC(N)=O)C(=O)N[C@H](C(=O)NCC(=O)N1CCC[C@H]1C(=O)N[C@@H](CO)C(=O)N[C@@H](CO)C(=O)NCC(=O)N[C@@H](C)C(=O)N1CCC[C@H]1C(=O)N1CCC[C@H]1C(=O)N1CCC[C@H]1C(=O)N[C@@H](CO)C(N)=O)[C@@H](C)O)[C@@H](C)CC)C(=O)O [SEQ ID NO: 10, Y-Aib-E-G-T-F-T-S-D-L-S-I-Q-K(γE-x53)-E-E-R-A-A-(S)MeOrn-E-F-I-E-W-L-K-N-T-G-P-S-S-G-A-P-P-P-S-NH2] (H-Y[Aib]EGTFTSDLSIQK([γGlu-Palmitoyl])EERAA[αMeOrn]EFIEWLKNTGPSSGAPPPS-NH2)			7.1	4.9	
CCCCCCCCCCCCCCCCCC(=O)N[C@@H](CCC(=O)NCCCC[C@H](NC(=O)[C@H](CCC(N)=O)NC(=O)[C@H](CCCCN)NC(=O)[C@H](CO)NC(=O)[C@H](CC(C)C)NC(=O)[C@H](CC(=O)O)NC(=O)[C@H](CO)NC(=O)[C@@H](NC(=O)[C@H](Cc1ccccc1)NC(=O)[C@@H](NC(=O)CNC(=O)[C@H](CCC(N)=O)NC(=O)C(C)(C)NC(=O)[C@@H](N)Cc1ccc(O)cc1)[C@@H](C)O)[C@@H](C)O)C(=O)N[C@@H](CC(=O)O)C(=O)N[C@@H](CCC(=O)O)C(=O)N[C@@H](CCC(N)=O)C(=O)N[C@@H](CCCNC(=N)N)C(=O)N[C@@H](C)C(=O)N[C@@](C)(CCCCN)C(=O)N[C@@H](CCC(=O)O)C(=O)N[C@@H](Cc1ccccc1)C(=O)N[C@H](C(=O)N[C@@H](CCC(=O)O)C(=O)N[C@@H](Cc1c[nH]c2ccccc12)C(=O)N[C@@H](CC(C)C)C(=O)N[C@@H](CCCCN)C(=O)N[C@@H](CO)C(=O)NCC(=O)NCC(=O)N1CCC[C@H]1C(=O)N[C@@H](CO)C(=O)N[C@@H](CO)C(=O)NCC(=O)N[C@@H](C)C(=O)N1CCC[C@H]1C(=O)N1CCC[C@H]1C(=O)N1CCC[C@H]1C(=O)N[C@@H](CO)C(N)=O)[C@@H](C)CC)C(=O)O [SEQ ID NO: 12, Y-Aib-Q-G-T-F-T-S-D-L-S-K-Q-K(γE-x70)-D-E-Q-R-A-(S)MeLys-E-F-I-E-W-L-K-S-G-G-P-S-S-G-A-P-P-P-S-NH2]	98.0	91.0			maximal effect, glucose reduction [5]: ~11 mmol/L; solubility at 2 h [3, 6]: > 1000 µg/mL; solubility at 2 h [3, 7]: 983 µg/mL (≈ 211 µM)
CCCCCCCCCCCCCCCCCC(=O)N[C@@H](CCC(=O)NCCCC[C@H](NC(=O)[C@H](CCC(N)=O)NC(=O)[C@@H](NC(=O)[C@H](CO)NC(=O)[C@H](CC(C)C)NC(=O)[C@H](CC(=O)O)NC(=O)[C@H](CO)NC(=O)[C@@H](NC(=O)[C@H](Cc1ccccc1)NC(=O)[C@@H](NC(=O)CNC(=O)[C@H](CCC(N)=O)NC(=O)C(C)(C)NC(=O)[C@@H](N)Cc1ccc(O)cc1)[C@@H](C)O)[C@@H](C)O)[C@@H](C)CC)C(=O)N[C@@H](CC(=O)O)C(=O)N[C@@H](CCC(=O)O)C(=O)N[C@@H](CCC(N)=O)C(=O)N[C@@H](CCCNC(=N)N)C(=O)N[C@@H](C)C(=O)N[C@](C)(CCCCN)C(=O)N[C@@H](CCC(=O)O)C(=O)N[C@@H](Cc1ccccc1)C(=O)N[C@H](C(=O)N[C@@H](CCC(=O)O)C(=O)N[C@@H](Cc1c[nH]c2ccccc12)C(=O)N[C@@H](CC(C)C)C(=O)N[C@@H](CCCCN)C(=O)N[C@@H](CO)C(=O)NCC(=O)NCC(=O)N1CCC[C@H]1C(=O)N[C@@H](CO)C(=O)N[C@@H](CO)C(=O)NCC(=O)N[C@@H](C)C(=O)N1CCC[C@H]1C(=O)N1CCC[C@H]1C(=O)N1CCC[C@H]1C(=O)N[C@@H](CO)C(N)=O)[C@@H](C)CC)C(=O)O [SEQ ID NO: 13, Y-Aib-Q-G-T-F-T-S-D-L-S-I-Q-K(γE-x70)-D-E-Q-R-A-(R)MeLys-E-F-I-E-W-L-K-S-G-G-P-S-S-G-A-P-P-P-S-NH2] (H-Y[Aib]QGTFTSDLSIQK([γGlu-Stearoyl])DEQRA[d(αMeK)]EFIEWLKSGGPSSGAPPPS-NH2)				13.6	
CCCCCCCCCCCCCCCCCC(=O)N[C@@H](CCC(=O)NCCCC[C@H](NC(=O)[C@H](CCC(N)=O)NC(=O)[C@@H](NC(=O)[C@H](CO)NC(=O)[C@H](CC(C)C)NC(=O)[C@H](CC(=O)O)NC(=O)[C@H](CO)NC(=O)[C@@H](NC(=O)[C@H](Cc1ccccc1)NC(=O)[C@@H](NC(=O)CNC(=O)[C@H](CCC(=O)O)NC(=O)C(C)(C)NC(=O)[C@@H](N)Cc1ccc(O)cc1)[C@@H](C)O)[C@@H](C)O)[C@@H](C)CC)C(=O)N[C@@H](CC(=O)O)C(=O)N[C@@H](CCC(=O)O)C(=O)N[C@@H](CCCNC(=N)N)C(=O)N[C@@H](C)C(=O)N[C@@H](C)C(=O)N[C@@](C)(CCCCN)C(=O)N[C@@H](CCC(=O)O)C(=O)N[C@@H](Cc1ccccc1)C(=O)N[C@H](C(=O)N[C@@H](CCC(=O)O)C(=O)N[C@@H](Cc1c[nH]c2ccccc12)C(=O)N[C@@H](CC(C)C)C(=O)N[C@@H](CCCCN)C(=O)N[C@@H](CC(N)=O)C(=O)N[C@H](C(=O)NCC(=O)N1CCC[C@H]1C(=O)N[C@@H](CO)C(=O)N[C@@H](CO)C(=O)NCC(=O)N[C@@H](C)C(=O)N1CCC[C@H]1C(=O)N1CCC[C@H]1C(=O)N1CCC[C@H]1C(=O)N[C@@H](CO)C(N)=O)[C@@H](C)O)[C@@H](C)CC)C(=O)O [SEQ ID NO: 14, Y-Aib-E-G-T-F-T-S-D-L-S-I-Q-K(γE-x70)-D-E-R-A-A-(S)MeLys-E-F-I-E-W-L-K-N-T-G-P-S-S-G-A-P-P-P-S-NH2] (H-Y[Aib]EGTFTSDLSIQK([γGlu-Stearoyl])DERAA[αMeK]EFIEWLKNTGPSSGAPPPS-NH2)				7.2	
